Data from ChEMBL document CHEMBL4665624, “Synthesis of 5-(4-(1H-phenanthro[9,10-d]imidazol-2-yl)benzylidene)thiazolidine-2,4-dione as promising DNA and serum albumin-binding agents and evaluation of antitumor activity” (Eur J Med Chem, 2019).
The source made the active and inactive calls. No cut-off for these calls is given here.

Tests used:
Hs-578T = experiment: Antitumor activity against human HS 578T cells assessed as cell growth inhibition at 10 uM incubated for 48 hrs by sulforhodamine B assay; assay type: functional; details: read-out: GI
Calf thymus DNA [1] = experiment: Binding affinity to calf thymus DNA assessed as quenching constant by fluorescence emission spectroscopic analysis; assay type: nucleic-acid assay; details: Bos taurus
Calf thymus DNA [2] = experiment: Binding affinity to calf thymus DNA assessed as DNA intercalation by measuring increase in melting temperature of DNA at 10 uM by thermal denaturation based spectrophotometric analysis; assay type: nucleic-acid assay; details: Bos taurus
HOP-92 = experiment: Antitumor activity against human HOP92 cells assessed as cell growth inhibition at 10 uM incubated for 48 hrs by sulforhodamine B assay; assay type: functional; details: read-out: GI
Malme-3M = experiment: Antitumor activity against human MALME-3M cells assessed as cell growth inhibition at 10 uM incubated for 48 hrs by sulforhodamine B assay; assay type: functional; details: read-out: GI
SNB-75 = experiment: Antitumor activity against human SNB-75 cells assessed as cell growth inhibition at 10 uM incubated for 48 hrs by sulforhodamine B assay; assay type: functional; details: read-out: GI
A549 [3] = experiment: Cytotoxicity against human A549/ATCC assessed as reduction in cell viability at 100 uM after 48 hrs by MTT assay; assay type: functional
NCI-H23 = experiment: Antitumor activity against human NCI-H23 cells assessed as cell growth inhibition at 10 uM incubated for 48 hrs by sulforhodamine B assay; assay type: functional; details: read-out: GI
Albumin [4] = biological target: T1, Albumin (Bos taurus, UniProt P02769); experiment: Binding affinity to bovine serum albumin assessed as quenching constant at 318K by fluorescence emission spectrum analysis; assay type: ADME, cell-free; details: cattle
Albumin [5] = biological target: T1, Albumin; experiment: Binding affinity to bovine serum albumin assessed as appearance of new fluorescence band at 510 nm at 0-12 uM by fluorescence emission spectrum analysis; assay type: ADME, cell-free; details: cattle
NCI-H226 = experiment: Antitumor activity against human NCI-H226 assessed as cell growth inhibition at 10 uM incubated for 48 hrs by sulforhodamine B assay; assay type: functional; details: read-out: GI
Albumin [6] = biological target: T1, Albumin; experiment: Binding affinity to bovine serum albumin assessed as hydrogen bonding interaction by measuring change in enthalpy at 298K by thermodynamic based analysis; assay type: ADME, cell-free; details: cattle
SW-620 = experiment: Antitumor activity against human SW620 cells assessed as cell growth inhibition at 10 uM incubated for 48 hrs by sulforhodamine B assay; details: SW-620, 48 h, read-out: GI
U-251 = experiment: Antitumor activity against human U251 cells assessed as cell growth inhibition at 10 uM incubated for 48 hrs by sulforhodamine B assay; assay type: functional; details: read-out: GI
SN12C = experiment: Antitumor activity against human SN12C cells assessed as cell growth inhibition at 10 uM incubated for 48 hrs by sulforhodamine B assay; assay type: functional; details: read-out: GI
Albumin [7] = biological target: T2, Albumin (Homo sapiens, UniProt P02768); experiment: Binding affinity to human serum albumin assessed as binding constant by UV-Vis absorption spectroscopy; assay type: ADME, cell-free
Albumin [8] = biological target: T1, Albumin; experiment: Binding affinity to bovine serum albumin assessed as Stern-Volmer quenching constant at 298K by fluorescence emission spectrum analysis; assay type: ADME, cell-free; details: cattle
RXF 393 = experiment: Antitumor activity against human RXF 393 cells assessed as cell growth inhibition at 10 uM incubated for 48 hrs by sulforhodamine B assay; assay type: functional; details: read-out: GI
Calf thymus DNA [9] = experiment: Binding affinity to calf thymus DNA assessed as binding constant by UV-Vis absorption spectrophotometric method based Benesi-Hildebrand equation analysis; assay type: nucleic-acid assay; details: Bos taurus
OVCAR-8 = experiment: Antitumor activity against human OVCAR-8 cells assessed as cell growth inhibition at 10 uM incubated for 48 hrs by sulforhodamine B assay; assay type: functional; details: read-out: GI
A549 [10] = experiment: Cytotoxicity against human A549/ATCC assessed as reduction in cell viability at 0.1 uM after 48 hrs by MTT assay; assay type: functional
Albumin [11] = biological target: T1, Albumin; experiment: Binding affinity to bovine serum albumin assessed as increase in absorption intensity at 280 nm at 0-10 uM by UV-vis absorption spectral titration analysis; assay type: ADME, cell-free; details: cattle
Albumin [12] = biological target: T1, Albumin; experiment: Binding affinity to bovine serum albumin assessed as decrease in fluorescence emission intensity at 350 nm at 0-12 uM by fluorescence emission spectrum analysis; assay type: ADME, cell-free; details: cattle, 0.35 µM
M14 = experiment: Antitumor activity against human M14 cells assessed as cell growth inhibition at 10 uM incubated for 48 hrs by sulforhodamine B assay; assay type: functional; details: read-out: GI
Albumin [13] = biological target: T1, Albumin; experiment: Binding affinity to bovine serum albumin assessed as spontaneous interaction by measuring change in gibbs free energy at 318K by thermodynamic based analysis; assay type: ADME, cell-free; details: cattle
Calf thymus DNA [14] = experiment: Binding affinity to calf thymus DNA assessed as Stern-Volmer quenching constant by ethidium bromide competitive displacement assay; assay type: nucleic-acid assay; details: Bos taurus
HEK293 [15] = experiment: Cytotoxicity against human HEK293 assessed as reduction in cell viability at 100 uM after 48 hrs by MTT assay; assay type: cell-based; details: hek293, 48 h
HCT-116 = experiment: Antitumor activity against human HCT116 cells assessed as cell growth inhibition at 10 uM incubated for 48 hrs by sulforhodamine B assay; assay type: functional; details: read-out: GI
Calf thymus DNA [16] = experiment: Binding affinity to calf thymus DNA assessed as increase in fluorescence emission intensity at 468 nm at 20 uM by fluorescence emission spectroscopic analysis; assay type: nucleic-acid assay; details: Bos taurus
Albumin [17] = biological target: T1, Albumin; experiment: Binding affinity to bovine serum albumin assessed as binding constant at 298K by fluorescence emission spectrum analysis; assay type: ADME, cell-free; details: cattle
HEK293 [18] = experiment: Cytotoxicity against human HEK293 assessed as reduction in cell viability at 1 uM after 48 hrs by MTT assay; assay type: cell-based; details: hek293, 48 h
ACHN = experiment: Antitumor activity against human ACHN cells assessed as cell growth inhibition at 10 uM incubated for 48 hrs by sulforhodamine B assay; assay type: functional; details: read-out: GI
K562 = experiment: Antitumor activity against human K562 cells assessed as cell growth inhibition at 10 uM incubated for 48 hrs by sulforhodamine B assay; assay type: functional; details: read-out: GI
NCI-H522 = experiment: Antitumor activity against human NCI-H522 cells assessed as cell growth inhibition at 10 uM incubated for 48 hrs by sulforhodamine B assay; assay type: functional; details: read-out: GI
Albumin [19] = biological target: T2, Albumin; experiment: Binding affinity to human serum albumin assessed as quenching constant by fluorescence emission spectroscopy; assay type: ADME, cell-free
Albumin [20] = biological target: T1, Albumin; experiment: Binding affinity to bovine serum albumin assessed as formation of new absorption band at 400 nm at 0-10 uM by UV-vis absorption spectral titration analysis; assay type: ADME, cell-free; details: cattle
A498 = experiment: Antitumor activity against human A498 cells assessed as cell growth inhibition at 10 uM incubated for 48 hrs by sulforhodamine B assay; assay type: functional; details: read-out: GI
SF-295 = experiment: Antitumor activity against human SF295 cells assessed as cell growth inhibition at 10 uM incubated for 48 hrs by sulforhodamine B assay; assay type: functional; details: read-out: GI
MDA-MB-468 = experiment: Antitumor activity against human MDA-MB-468 cells assessed as cell growth inhibition at 10 uM incubated for 48 hrs by sulforhodamine B assay; assay type: functional; details: read-out: GI
MOLT-4 = experiment: Antitumor activity against human MOLT4 cells assessed as cell growth inhibition at 10 uM incubated for 48 hrs by sulforhodamine B assay; assay type: functional; details: read-out: GI
Albumin [21] = biological target: T1, Albumin; experiment: Binding affinity to bovine serum albumin assessed as binding constant at 318K by fluorescence emission spectrum analysis; assay type: ADME, cell-free; details: cattle
HT-29 = experiment: Antitumor activity against human HT-29 cells assessed as cell growth inhibition at 10 uM incubated for 48 hrs by sulforhodamine B assay; assay type: functional; details: read-out: GI
DNA = experiment: Binding affinity to human DNA in blood assessed as Stern-Volmer quenching constant by fluorescence emission spectrum analysis; assay type: tissue-based
A549 [22] = experiment: Cytotoxicity against human A549/ATCC assessed as reduction in cell viability at 0.01 uM after 48 hrs by MTT assay; assay type: functional

T1 sequence (P02769 whole entry): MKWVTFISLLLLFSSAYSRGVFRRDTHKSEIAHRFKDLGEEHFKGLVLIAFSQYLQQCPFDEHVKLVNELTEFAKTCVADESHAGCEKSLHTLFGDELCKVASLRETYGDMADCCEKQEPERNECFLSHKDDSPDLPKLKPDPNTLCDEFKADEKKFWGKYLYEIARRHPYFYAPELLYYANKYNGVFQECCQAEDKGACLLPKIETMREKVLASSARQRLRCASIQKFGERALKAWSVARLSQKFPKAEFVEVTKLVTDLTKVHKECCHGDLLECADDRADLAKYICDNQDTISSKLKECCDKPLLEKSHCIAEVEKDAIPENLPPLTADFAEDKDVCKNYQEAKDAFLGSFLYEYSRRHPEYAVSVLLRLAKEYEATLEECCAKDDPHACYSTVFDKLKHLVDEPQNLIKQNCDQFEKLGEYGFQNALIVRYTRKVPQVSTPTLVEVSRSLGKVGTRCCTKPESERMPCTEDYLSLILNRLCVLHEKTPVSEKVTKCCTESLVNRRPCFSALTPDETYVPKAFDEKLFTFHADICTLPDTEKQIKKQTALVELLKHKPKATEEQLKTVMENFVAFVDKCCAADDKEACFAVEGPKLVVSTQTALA
T2 sequence (P02768 whole entry): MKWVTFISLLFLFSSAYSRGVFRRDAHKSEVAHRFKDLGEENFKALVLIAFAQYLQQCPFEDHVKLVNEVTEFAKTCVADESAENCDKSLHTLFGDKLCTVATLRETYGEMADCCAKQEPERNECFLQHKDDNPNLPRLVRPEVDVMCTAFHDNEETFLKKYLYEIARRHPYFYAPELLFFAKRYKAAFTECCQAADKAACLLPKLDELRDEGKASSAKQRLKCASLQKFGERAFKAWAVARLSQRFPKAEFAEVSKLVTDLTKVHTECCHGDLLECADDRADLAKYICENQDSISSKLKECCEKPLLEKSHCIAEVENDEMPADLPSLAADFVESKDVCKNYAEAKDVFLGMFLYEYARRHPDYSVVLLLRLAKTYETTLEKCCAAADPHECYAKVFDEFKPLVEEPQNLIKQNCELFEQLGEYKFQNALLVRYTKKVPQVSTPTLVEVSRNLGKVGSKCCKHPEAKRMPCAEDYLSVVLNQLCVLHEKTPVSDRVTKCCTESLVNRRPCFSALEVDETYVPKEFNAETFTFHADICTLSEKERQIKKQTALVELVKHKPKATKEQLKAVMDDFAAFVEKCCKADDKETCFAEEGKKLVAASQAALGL

O=C1NC(=O)/C(=C/c2ccc(-c3nc4c5ccccc5c5ccccc5c4[nH]3)cc2)S1
inhibition of growth at 10 µM (Hs-578T): 17.6% | Kq (Calf thymus DNA [1]): 1.88 10^11/M/s | ΔTm (Calf thymus DNA [2]): 7.1 °C | inhibition of growth at 10 µM (HOP-92): 21.4% | inhibition of growth at 10 µM (Malme-3M): 14.8% | inhibition of growth at 10 µM (SNB-75): < 10% | Activity (A549 [3]): 90% | inhibition of growth at 10 µM (NCI-H23): 29% | Kq (Albumin [4]): 3.51 10^13/M/sec | Activity (Albumin [5]): Active | inhibition of growth at 10 µM (NCI-H226): < 10% | deltaH (Albumin [6]): -2.92 kcal/mol | inhibition of growth at 10 µM (SW-620): 22.8% | inhibition of growth at 10 µM (U-251): 30.3% | inhibition of growth at 10 µM (SN12C): < 10% | Kb (Albumin [7]): 9.35 10^4/M | KSV (Albumin [8]): 8.42 10^5/M | inhibition of growth at 10 µM (RXF 393): 19.1% | Kb (Calf thymus DNA [9]): 2.95 10^4/M | inhibition of growth at 10 µM (OVCAR-8): 21.7% | Activity (A549 [10]): 59% | Activity (Albumin [11]): Active | Activity (Albumin [12]): Active | inhibition of growth at 10 µM (M14): 47.9% | deltaG (Albumin [13]): -9.41 kcal/mol | KSV (Calf thymus DNA [14]): 6.53 10^4/M | Activity (HEK293 [15]): 15% | inhibition of growth at 10 µM (HCT-116): 65.5% | Activity (Calf thymus DNA [16]): Active | Kb (Albumin [17]): 4.06 10^6/M | Activity (HEK293 [18]): 6% | inhibition of growth at 10 µM (ACHN): 33.4% | inhibition of growth at 10 µM (K562): 68.1% | inhibition of growth at 10 µM (NCI-H522): 47.6% | Kq (Albumin [19]): 3.01 10^14/M/s | Activity (Albumin [20]): Active | inhibition of growth at 10 µM (A498): 93% | inhibition of growth at 10 µM (SF-295): 16.3% | inhibition of growth at 10 µM (MDA-MB-468): 51.7% | inhibition of growth at 10 µM (MOLT-4): 47.1% | Kb (Albumin [21]): 2.97 10^6/M | inhibition of growth at 10 µM (HT-29): 24% | KSV (DNA): 3.46 10^3/M | Activity (A549 [22]): 42%
